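Values below derive from 48-hour exposures of cells grown in 96-well plates, with endpoints linearly interpolated between the two concentrations bracketing the appropriate inhibition level. Abbreviation: GI50, concentration required for 50% inhibition of growth. TGI: total growth inhibition.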
Assays:
Test in all cases: NCI tumour cell line growth inhibition, 48 h
MDA-MB-468 breast = system: MDA-MB-468 breast
HCT-15 colon = system: HCT-15 colon
MALME-3M melanoma = system: MALME-3M melanoma
MDA-MB-435 = system: MDA-MB-435
HOP-92 NSCLC = system: HOP-92 NSCLC
ACHN renal = system: ACHN renal
BT-549 breast = system: BT-549 breast
SN12C renal = system: SN12C renal
OVCAR-4 ovarian = system: OVCAR-4 ovarian
RXF 393 renal = system: RXF 393 renal
SNB-75 CNS = system: SNB-75 CNS
M14 melanoma = system: M14 melanoma
NCI-H522 lung = system: NCI-H522 lung
NCI-H226 lung = system: NCI-H226 lung
MDA-MB-231 breast = system: MDA-MB-231 breast
A549 NSCLC = system: A549 NSCLC
CCRF-CEM leukemia = system: CCRF-CEM leukemia
NCI-H23 lung = system: NCI-H23 lung
A498 renal = system: A498 renal
CAKI-1 renal = system: CAKI-1 renal
RPMI-8226 leukemia = system: RPMI-8226 leukemia
SNB-19 CNS = system: SNB-19 CNS
786-0 renal = system: 786-0 renal
SK-MEL-28 melanoma = system: SK-MEL-28 melanoma
MCF7 breast = system: MCF7 breast
HCT-116 colon = system: HCT-116 colon
HCC-2998 colon = system: HCC-2998 colon
MOLT-4 leukemia = system: MOLT-4 leukemia
U251 CNS = system: U251 CNS
SK-MEL-5 melanoma = system: SK-MEL-5 melanoma
IGROV1 ovarian = system: IGROV1 ovarian
OVCAR-3 ovarian = system: OVCAR-3 ovarian
PC-3 prostate = system: PC-3 prostate
UACC-257 melanoma = system: UACC-257 melanoma
SW-620 colon = system: SW-620 colon
HT29 colon = system: HT29 colon
SF-539 CNS = system: SF-539 CNS
COLO 205 colon = system: COLO 205 colon
SF-268 CNS = system: SF-268 CNS
SF-295 CNS = system: SF-295 CNS
OVCAR-5 ovarian = system: OVCAR-5 ovarian
K-562 leukemia = system: K-562 leukemia
T-47D breast = system: T-47D breast
SR leukemia = system: SR leukemia
EKVX NSCLC = system: EKVX NSCLC
OVCAR-8 ovarian = system: OVCAR-8 ovarian
UACC-62 melanoma = system: UACC-62 melanoma
TK-10 renal = system: TK-10 renal
SK-OV-3 ovarian = system: SK-OV-3 ovarian
KM12 colon = system: KM12 colon
DU-145 prostate = system: DU-145 prostate
LOX IMVI melanoma = system: LOX IMVI melanoma
UO-31 renal = system: UO-31 renal
HS 578T breast = system: HS 578T breast
HOP-62 NSCLC = system: HOP-62 NSCLC
HL-60(TB) leukemia = system: HL-60(TB) leukemia
NCI-H460 lung = system: NCI-H460 lung

For `N#CC(=S)Nc1ccc(Cl)c(Cl)c1`, the GI50 (MDA-MB-468 breast) was 6.1 µM and the TGI (MDA-MB-468 breast) was 52.2 µM.
Work on `CCOC(=O)/C(=C/c1ccc([N+](=O)[O-])cc1)C(=O)c1ccccc1` yielded a GI50 (MDA-MB-468 breast) of 2.31 µM and a TGI (MDA-MB-468 breast) of 4.6 µM.
`c1cc(OCCN2CCCCCC2)ccc1CNc1ccc2nc(CCC3CCCCC3)[nH]c2c1` gave a GI50 (MDA-MB-468 breast) of 1.55 µM and a TGI (MDA-MB-468 breast) of 4.02 µM.
`O=C(Nc1n[nH]c2nc(-c3ccco3)ccc12)C1CC1` showed a GI50 (MDA-MB-468 breast) of over 25 µM and a TGI (MDA-MB-468 breast) of over 25 µM.
Work on `COc1cc(/C=C/C(=O)c2ccc(Nc3ncnc4ccccc34)cc2)cc(OC)c1` yielded a GI50 (MDA-MB-468 breast) of 2.2 µM and a TGI (MDA-MB-468 breast) of 10.7 µM.
`COc1ccc(/C=C2\CN(Cc3cn(CCCNc4ccnc5cc(Cl)ccc45)nn3)C/C(=C\c3ccc(OC)c(OC)c3)C2=O)cc1OC` gave a GI50 (MDA-MB-468 breast) of 0.772 µM and a TGI (MDA-MB-468 breast) of 2.49 µM.
`COc1ccc(-c2nn(-c3cccc(NC(=O)Nc4ccc(Cl)c(C(F)(F)F)c4)c3)cc2-c2ccncc2)cc1Cl` showed a GI50 (MDA-MB-468 breast) of 1.63 µM and a TGI (MDA-MB-468 breast) of 6.78 µM.
`O=C(Nc1ccccc1)Nc1cccc(-n2cc(-c3ccncc3)c(-c3ccc(O)c(Cl)c3)n2)c1` was tested, and the GI50 (MDA-MB-468 breast) was 3.22 µM and the TGI (MDA-MB-468 breast) was 12.2 µM.
`CN(C)CCCN(c1nc(C(Cl)(Cl)Cl)ns1)c1nc(C(Cl)(Cl)Cl)ns1` was tested, and the GI50 (MDA-MB-468 breast) was 1.66 µM and the TGI (MDA-MB-468 breast) was 3.11 µM.
Work on `C=C1C(=O)O[C@H]2[C@H]1CC/C(COC(=O)CCCCCCCCC(=O)OC/C1=C/CC[C@@]3(C)O[C@H]3[C@H]3OC(=O)C(=C)[C@@H]3CC1)=C\CC[C@@]1(C)O[C@@H]21` yielded a GI50 (MDA-MB-468 breast) of 2.27 µM and a TGI (MDA-MB-468 breast) of 5.15 µM.
`O=C1c2cc3c(cc2-c2c1c1ccc(Cl)cc1c(=O)n2C[C@H](O)[C@@H](O)[C@H](O)CO)OCO3` showed a GI50 (MDA-MB-468 breast) of 0.0189 µM and a TGI (MDA-MB-468 breast) of 0.0459 µM.
Work on `O=C(COc1ccc(NC(=O)Nc2ccc(Cl)cc2)cc1)N/N=C/c1ccccc1` yielded a GI50 (HCT-15 colon) of 5.85 µM, a TGI (HCT-15 colon) of over 100 µM and a GI50 (MALME-3M melanoma) of 4.44 µM. For the same molecule, the TGI (MALME-3M melanoma) was 71.7 µM, the GI50 (MDA-MB-435) was 3.76 µM and the TGI (MDA-MB-435) was over 100 µM. It also gave a GI50 (HOP-92 NSCLC) of 3 µM, a TGI (HOP-92 NSCLC) of 16 µM and a GI50 (ACHN renal) of 4.64 µM. The TGI (ACHN renal) was 37.6 µM, the GI50 (BT-549 breast) was 4.41 µM and the TGI (BT-549 breast) was 56.2 µM. The GI50 (SN12C renal) was 7.64 µM, the TGI (SN12C renal) was over 100 µM and the GI50 (OVCAR-4 ovarian) was 3.34 µM. For the same molecule, the TGI (OVCAR-4 ovarian) was 68.7 µM, the GI50 (RXF 393 renal) was 4.55 µM and the TGI (RXF 393 renal) was 19 µM. The GI50 (SNB-75 CNS) was 3.95 µM, the TGI (SNB-75 CNS) was 24.3 µM and the GI50 (M14 melanoma) was 5.02 µM. For the same molecule, the TGI (M14 melanoma) was over 100 µM, the GI50 (NCI-H522 lung) was 7.74 µM and the TGI (NCI-H522 lung) was over 100 µM. For the same molecule, the GI50 (NCI-H226 lung) was 2.85 µM, the TGI (NCI-H226 lung) was 9.82 µM and the GI50 (MDA-MB-231 breast) was 8.57 µM. For the same molecule, the TGI (MDA-MB-231 breast) was 47.6 µM, the GI50 (A549 NSCLC) was 4.67 µM and the TGI (A549 NSCLC) was over 100 µM. The GI50 (CCRF-CEM leukemia) was 21.8 µM, the TGI (CCRF-CEM leukemia) was over 100 µM and the GI50 (NCI-H23 lung) was 4.21 µM. For the same molecule, the TGI (NCI-H23 lung) was 25.9 µM, the GI50 (A498 renal) was 20.1 µM and the TGI (A498 renal) was 50.9 µM. The GI50 (CAKI-1 renal) was 15 µM, the TGI (CAKI-1 renal) was over 100 µM and the GI50 (RPMI-8226 leukemia) was 63.9 µM. For the same molecule, the TGI (RPMI-8226 leukemia) was over 100 µM, the GI50 (SNB-19 CNS) was 4.42 µM and the TGI (SNB-19 CNS) was 20.7 µM. It also gave a GI50 (786-0 renal) of 6.26 µM, a TGI (786-0 renal) of 24.9 µM and a GI50 (SK-MEL-28 melanoma) of 3.87 µM. For the same molecule, the TGI (SK-MEL-28 melanoma) was 43.1 µM, the GI50 (MCF7 breast) was 3.88 µM and the TGI (MCF7 breast) was over 100 µM. For the same molecule, the GI50 (MDA-MB-468 breast) was 3.23 µM, the TGI (MDA-MB-468 breast) was 10.6 µM and the GI50 (HCT-116 colon) was 1.68 µM. For the same molecule, the TGI (HCT-116 colon) was 12.6 µM, the GI50 (HCC-2998 colon) was 22.5 µM and the TGI (HCC-2998 colon) was over 100 µM. The GI50 (MOLT-4 leukemia) was 59.5 µM, the TGI (MOLT-4 leukemia) was over 100 µM and the GI50 (U251 CNS) was 4.05 µM. It also gave a TGI (U251 CNS) of over 100 µM, a GI50 (SK-MEL-5 melanoma) of 8.49 µM and a TGI (SK-MEL-5 melanoma) of over 100 µM. It also gave a GI50 (IGROV1 ovarian) of 14.1 µM, a TGI (IGROV1 ovarian) of over 100 µM and a GI50 (OVCAR-3 ovarian) of 4.15 µM. For the same molecule, the TGI (OVCAR-3 ovarian) was 54.2 µM, the GI50 (PC-3 prostate) was 2.81 µM and the TGI (PC-3 prostate) was 21.2 µM. For the same molecule, the GI50 (UACC-257 melanoma) was 17.4 µM, the TGI (UACC-257 melanoma) was over 100 µM and the GI50 (SW-620 colon) was 6.03 µM. It also gave a TGI (SW-620 colon) of over 100 µM, a GI50 (HT29 colon) of 31.2 µM and a TGI (HT29 colon) of over 100 µM. The GI50 (SF-539 CNS) was 6.23 µM, the TGI (SF-539 CNS) was 27.4 µM and the GI50 (COLO 205 colon) was 19 µM. The TGI (COLO 205 colon) was over 100 µM, the GI50 (SF-268 CNS) was 16.2 µM and the TGI (SF-268 CNS) was 99.8 µM. For the same molecule, the GI50 (SF-295 CNS) was 2.69 µM, the TGI (SF-295 CNS) was 13.7 µM and the GI50 (OVCAR-5 ovarian) was over 100 µM. It also gave a TGI (OVCAR-5 ovarian) of over 100 µM, a GI50 (K-562 leukemia) of 12.6 µM and a TGI (K-562 leukemia) of over 100 µM. It also gave a GI50 (T-47D breast) of 8.22 µM, a TGI (T-47D breast) of over 100 µM and a GI50 (SR leukemia) of 4.59 µM. The TGI (SR leukemia) was 33.1 µM, the GI50 (EKVX NSCLC) was 6.09 µM and the TGI (EKVX NSCLC) was 90.8 µM. It also gave a GI50 (OVCAR-8 ovarian) of 3.81 µM, a TGI (OVCAR-8 ovarian) of over 100 µM and a GI50 (UACC-62 melanoma) of 2.82 µM. The TGI (UACC-62 melanoma) was 13.7 µM, the GI50 (TK-10 renal) was 20.2 µM and the TGI (TK-10 renal) was 63.8 µM. The GI50 (SK-OV-3 ovarian) was 6.06 µM, the TGI (SK-OV-3 ovarian) was 25.8 µM and the GI50 (KM12 colon) was over 100 µM. It also gave a TGI (KM12 colon) of over 100 µM, a GI50 (DU-145 prostate) of 4.51 µM and a TGI (DU-145 prostate) of over 100 µM. For the same molecule, the GI50 (LOX IMVI melanoma) was 7.1 µM, the TGI (LOX IMVI melanoma) was over 100 µM and the GI50 (UO-31 renal) was 86.4 µM. It also gave a TGI (UO-31 renal) of over 100 µM, a GI50 (HS 578T breast) of 7.71 µM and a TGI (HS 578T breast) of 54.2 µM. The GI50 (HOP-62 NSCLC) was 2.62 µM, the TGI (HOP-62 NSCLC) was 11.1 µM and the GI50 (HL-60(TB) leukemia) was over 100 µM. The TGI (HL-60(TB) leukemia) was over 100 µM, the GI50 (NCI-H460 lung) was 3.22 µM and the TGI (NCI-H460 lung) was over 100 µM.

Source: PubChem BioAssay (NCI)
